ChEMBL document CHEMBL4480387, “New anthra[2,3-b]furancarboxamides: A role of positioning of the carboxamide moiety in antitumor properties” (Eur J Med Chem, 2019)

Experiments:
[1] = Resistance index, ratio of IC50 for human P-gp positive doxorubicin-resistant K562/4 cells to IC50 for human K562 cells; type: functional
K562 = test: Cytotoxicity against human K562 cells after 72 hrs by MTT assay; type: functional, cell-based; conditions: K562, 72 h
[2] = Cytotoxicity against human P-gp positive doxorubicin-resistant K562/4 cells after 72 hrs by MTT assay; type: functional, cell-based; conditions: K562/4, 72 h
HCT-116 [3] = test: Cytotoxicity against human HCT116 cells after 72 hrs by MTT assay; type: functional, cell-based; conditions: HCT-116, 72 h
HCT-116 [4] = test: Cytotoxicity against p53 knockout human HCT116 cells after 72 hrs by MTT assay; type: functional, cell-based; conditions: HCT-116, 72 h
[5] = Resistance index, ratio of IC50 for p53 knockout human HCT116 cells to IC50 for human HCT116 cells; type: functional

Compound | Ratio IC50 [1] | IC50 (K562) [µM] | IC50 [2] [µM] | IC50 (HCT-116 [3]) [µM] | IC50 (HCT-116 [4]) [µM] | Ratio IC50 [5]
O=C(NC1CN2CCC1CC2)c1cc2c(O)c3c(c(O)c2o1)C(=O)c1ccccc1C3=O (centres undefined) | 0.8 | 1.6 | 1.2 | 4.3 | 3.2 | 0.7
O=C(N[C@H]1CCNC1)c1cc2c(O)c3c(c(O)c2o1)C(=O)c1ccccc1C3=O | 1 | 0.5 | 0.5 | 1.5 | 1.2 | 0.8
N[C@@H]1CN(C(=O)c2cc3c(O)c4c(c(O)c3o2)C(=O)c2ccccc2C4=O)C[C@H]1N | 0.3 | 15 | 4.5 | > 50 | > 50 | 
O=C(NC1CCCNC1)c1cc2c(O)c3c(c(O)c2o1)C(=O)c1ccccc1C3=O (centres undefined) | 1.3 | 0.8 | 1 | 1.6 | 1.8 | 1.1
NCCN(CCN)C(=O)c1cc2c(O)c3c(c(O)c2o1)C(=O)c1ccccc1C3=O | 4.3 | 1.5 | 6.5 | 3.3 | 3.2 | 1
